Measurements as given in patent EP0745595A1, “3-(3-Aryloxyphenyl)-1-(substituted methyl)-s-triazine-2,4,6-oxo or thiotrione herbicidal agents” (American Cyanamid Company, priority 1995, dated 1996).

How the values were obtained:
Type in all cases: in vivo
[1] = system: GLYCINE MAX(L) MERR. CV. WILLIAMS; assay: Preemergence herbicidal evaluation, GLXMAW (Soybean, Williams); details: rated four to five weeks after treatment
Excerpt: (§1) Results of herbicide evaluation are expressed on a rating scale (0-9). The scale is based upon a visual observation of plant stand, vigor, malformation, size, chlorosis and overall plant appearance as compared with a control.
(§2) The preemergence herbicidal activity of the test compounds of the present invention is exemplified by the following tests in which the seeds of a variety of monocotyledonous and dicotyledonous plants are separately mixed with potting soil and planted on top of approximately one inch of soil in separate pint cups. […] The treated cups are then placed on greenhouse benches, watered and cared for in accordance with conventional greenhouse procedures. From four to five weeks after treatment, the tests are terminated and each cup is examined and rated according to the rating system provided in Example 40.
(§3) The compounds evaluated are reported by compound number given in Example 40.

[…], PRESL. = Preemergence weed control under flooded paddy conditions, MOOVA (Monochoria); details: preemergence, 3-4 weeks after treatment
Outline: (§4)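 Seeds or propagules were planted 0.5 cm deep in silt loam, with flood water held at 1.5 to 3 cm. Compound in 50/50 aqueous/acetone was pipetted into the flood water at about 0.5, 0.25, 0.125 and 0.063 kg/ha. Injury was rated visually on a 0-9 scale against a control 3-4 weeks after treatment.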

IPOMOEA SPP. = assay: Preemergence herbicidal evaluation, IPOSS (Morningglory spp.); details: rated four to five weeks after treatment
Excerpt: as §1, §2, §3

SAGITTARIA PYGMAEA, L. = assay: Preemergence weed control under flooded paddy conditions, SAGPY (Arrowhead (Pygmaea)); details: preemergence, 3-4 weeks after treatment
Outline: as §4

CASSIA OBTUSIFOLIA, L. = assay: Preemergence herbicidal evaluation, CASOB (Sicklepod); details: rated four to five weeks after treatment
Outline: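 Seeds of various monocot and dicot plants, including sicklepod, were each mixed with potting soil and sown on roughly one inch of soil in separate pint cups for preemergence testing. Treated cups were kept on greenhouse benches, watered and maintained conventionally. Four to five weeks after treatment, each cup was visually rated on a 0-9 scale against a control.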

[2] = system: ORYZA SATIVA, L. TEBONNET; assay: Rice tolerance to post-transplant applications under flooded paddy conditions, ORYSAT (Rice, Tebonnet); details: post-transplant rice, 3-4 weeks after treatment
Outline: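 Two ten-day-old Tebonnet rice seedlings transplanted into silt loam, flooded 1.5–3 cm; three days later the water surface treated with compounds in acetone/water at about 0.5, 0.25, 0.125 and 0.063 kg/ha. Visual 0–9 injury rating versus control after 3–4 weeks in greenhouse.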

ZEA MAYS L. = assay: Preemergence herbicidal evaluation, ZEAMX (Corn, Field); details: rated four to five weeks after treatment
Excerpt: as §1, §2, §3

[3] = system: ECHINOCHLOA ORYZOIDES (ARD.)FRITSCH; assay: Preemergence weed control under flooded paddy conditions, ECHORC (Watergrass (Calif.)); details: preemergence, 3-4 weeks after treatment
Outline: as §4

[4] = system: CYPERUS SEROTINUS, ROTTB.; assay: Preemergence weed control under flooded paddy conditions, CYPSE (Flatsedge); details: preemergence, 3-4 weeks after treatment
Outline: as §4

[5] = system: SETARIA VIRIDIS, (L) BEAU; assay: Postemergence herbicidal evaluation, SETVI (Foxtail, Green); parameters: key to SETVI rating / Herbicidal effect rating, SETVI / SETVI: 0-9 visual rating scale vs untreated control
Outline: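 Under usual greenhouse care after spraying, plants were examined four to five weeks on and given a 0–9 score relative to control. Application rate was about 0.125–0.500 kg/ha on ~two-week-old seedlings.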

CHENOPODIUM ALBUM, L. = assay: Preemergence herbicidal evaluation, CHEAL (Lambsquarters, Common); details: rated four to five weeks after treatment
Outline: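 Injury scored visually (0–9; stand, vigor, malformation, size, chlorosis) versus untreated control, four to five weeks post-treatment. Application: aqueous acetone spray onto freshly planted soil cups, equivalent to about 0.125 to 0.50 kg/ha, plants then kept under standard greenhouse care.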

[6] = system: ECHINOCHLOA CRUS-GALLI, (L) BEAU; assay: Preemergence herbicidal evaluation, ECHCG (Barnyardgrass); details: rated four to five weeks after treatment
Outline: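 Barnyardgrass seeds were mixed with potting soil and planted on about one inch of soil in pint cups for preemergence testing. Treated cups were kept on greenhouse benches, watered and maintained by standard greenhouse practice. After four to five weeks, each cup was visually rated on a 0-9 scale against an untreated control.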

Cn1c(=O)n(CC(N)=O)c(=O)n(-c2cc(Oc3ncc(C(F)(F)F)cc3Cl)ccc2Br)c1=O [Compound 42]
GLXMAW herbicidal rating ([1]; Rate 0.125 kg/ha): 0.0 | GLXMAW herbicidal rating ([1]; Rate 0.250 kg/ha): 0.0 | GLXMAW herbicidal rating ([1]; Rate 0.500 kg/ha): 0.0 | Herbicidal effect rating, MOOVA ([…], PRESL.; 0.250 kg/ha): 0.0 | Herbicidal effect rating, MOOVA ([…], PRESL.; 0.500 kg/ha): 0.0 | IPOSS herbicidal rating (IPOMOEA SPP.; Rate 0.125 kg/ha): 0.0 | IPOSS herbicidal rating (IPOMOEA SPP.; Rate 0.250 kg/ha): 0.0 | IPOSS herbicidal rating (IPOMOEA SPP.; Rate 0.500 kg/ha): 0.0 | Herbicidal effect rating, SAGPY (SAGITTARIA PYGMAEA, L.; 0.250 kg/ha): 0.0 | Herbicidal effect rating, SAGPY (SAGITTARIA PYGMAEA, L.; 0.500 kg/ha): 0.0 | CASOB herbicidal rating (CASSIA OBTUSIFOLIA, L.; Rate 0.125 kg/ha): 0.0 | CASOB herbicidal rating (CASSIA OBTUSIFOLIA, L.; Rate 0.250 kg/ha): 0.0 | CASOB herbicidal rating (CASSIA OBTUSIFOLIA, L.; Rate 0.500 kg/ha): 0.0 | Herbicidal effect rating, ORYSAT ([2]; 0.250 kg/ha): 1.0 | Herbicidal effect rating, ORYSAT ([2]; 0.500 kg/ha): 2.0 | ZEAMX herbicidal rating (ZEA MAYS L.; Rate 0.125 kg/ha): 0.0 | ZEAMX herbicidal rating (ZEA MAYS L.; Rate 0.250 kg/ha): 0.0 | ZEAMX herbicidal rating (ZEA MAYS L.; Rate 0.500 kg/ha): 0.0 | Herbicidal effect rating, ECHORC ([3]; 0.250 kg/ha): 0.0 | Herbicidal effect rating, ECHORC ([3]; 0.500 kg/ha): 0.0 | Herbicidal effect rating, CYPSE ([4]; 0.250 kg/ha): 0.0 | Herbicidal effect rating, CYPSE ([4]; 0.500 kg/ha): 0.0 | SETVI rating ([5]; Rate 0.125 kg/ha): 1.0 | SETVI rating ([5]; Rate 0.250 kg/ha): 1.0 | SETVI rating ([5]; Rate 0.500 kg/ha): 1.0 | CHEAL herbicidal rating (CHENOPODIUM ALBUM, L.; Rate 0.125 kg/ha): 9.0 | CHEAL herbicidal rating (CHENOPODIUM ALBUM, L.; Rate 0.250 kg/ha): 9.0 | CHEAL herbicidal rating (CHENOPODIUM ALBUM, L.; Rate 0.500 kg/ha): 9.0 | ECHCG herbicidal rating ([6]; Rate 0.125 kg/ha): 0.0 | ECHCG herbicidal rating ([6]; Rate 0.250 kg/ha): 0.0 | ECHCG herbicidal rating ([6]; Rate 0.500 kg/ha): 0.0
